Experiments:
[1] = 12-20 hours
Experimental: Porcine buccal tissue was harvested and cleaned of additional tissue. Punch biopsies (n=4 each) were obtained and employed in a transcutaneous flux rig per relevant protocols. […] Flux was continued for 12-20 hours with samples applied and left on donor surfaces.

[2] = Gabapentin delivery into porcine skin grafts, UPLC-MS; format: in vitro ADME; conditions: 1% gabapentin, 12-20 hours
Experimental: Delivery of gabapentin with hyaluronic acid into skin in vitro was measured using porcine skin grafts, and compared to delivery of gabapentin from a composition of gabapentin in saline (with no decoy molecule). Groups consisted of A) 1% gabapentin in saline (n=8 replicates), B) 1% gabapentin plus 1% sodium hyaluronate decoy of 3,000 Da in saline (n=8 replicates) or C) saline alone (n=8 replicates) in donor cells.
Briefly, tissues were incubated overnight in 0.5 mL of 50% acetonitrile in deionized water at 55° C. with agitation. Calibration standards and tissue extraction solvent samples were diluted 10× in deionized water before analysis. Diluted standards and samples were analyzed at 1 μL injection volumes. Concentrations were reported as μg/g of gabapentin in tissue.

[3] = 1 wt. % minocycline, in vitro
Experimental: Delivery of minocycline into porcine skin in vitro was measured and compared to delivery of minocycline from a composition of minocycline in saline (i.e, with no decoy molecule). Compositions were prepared containing of 1 wt. % minocycline and 1% of decoy molecule of hyaluronic acid with three molecular weights: 10,000 Da mean, 20,000 Da mean, and 30,000 Da mean. A control formulation containing 1 wt % minocycline in saline was also prepared

[4] = Sodium salicylate penetration into mid-dermal grafts, OD290 (Example 21); conditions: 1% sodium salicylate, 12-20 hours
Experimental: Replicates of mid-dermal grafts (grafts and punches for flux rig per Illustris sops), were employed in a transcutaneous flux rig per relevant protocols. […] Flux was continued for 12-20 hours with samples applied and left on donor surfaces.

[5] = in vivo, po; cited from earlier work
[6] = Oral sildenafil bioavailability and assumed tissue concentration; conditions: assuming uniform tissue distribution, average 75 kg male
[7] = 1% sildenafil, 12-20 hours
Source text: Replicates of mid-dermal grafts were employed in a transcutaneous flux rig per relevant protocols.

Structure (SMILES): O=C(O)c1ccccc1O [salicylate alone, salicylate]
- salicylate penetration through buccal tissue versus saline alone [1]: not statistically significant over saline alone

Structure (SMILES): NCC1(CC(=O)O)CCCCC1 [gabapentin alone, gabapentin]
- tissue levels of gabapentin [2]: 0.09 μg of gabapentin per gram of tissue

Structure (SMILES): CN(C)c1ccc(O)c2c1C[C@H]1C[C@H]3[C@H](N(C)C)C(O)=C(C(N)=O)C(=O)[C@@]3(O)C(O)=C1C2=O [minocycline]
- penetration of minocycline into porcine skin [3]: low native penetration

Structure (SMILES): O=C([O-])c1ccccc1O.[Na+] [Sodium salicylate, sodium salicylate]
- OD290 above saline (sodium salicylate in skin homogenate) [4]: 0.0165 AU

Structure (SMILES): CCCc1nn(C)c2c(=O)[nH]c(-c3cc(S(=O)(=O)N4CCN(C)CC4)ccc3OCC)nc12 [Sildenafil alone, sildenafil]
- bioavailability [5]: 41%
- tissue concentration at currently approved therapeutic dose [6]: 0.137 ug sildenafil per g of tissue
- sildenafil tissue concentration [7]: not detectable
